Results reported in US20250170099A1, “TREATMENT OF POSTNATAL DEPRESSION” (GH RESEARCH IRELAND LIMITED, priority 2022, published 2025).

Test system: patients with postpartum depression (PPD)
Experiment: Open-label clinical trial of inhaled 5-MeO-DMT in postpartum depression (one patient, IDR 6 mg then 12 mg)
Protocol: The single-arm, open-label clinical trial will involve 15 adult female patients with clinically diagnosed postpartum depression (PPD).
The second dose (12 mg) will only be administered if: • a. […] The 6 mg dose was safe and well-tolerated according to the investigator, • c. Any psychoactive effects (PsE) of the prior dose have subsided, and • d. Pre-dose vital parameters and forced expiratory volume in one second (FEV1) are in normal range, or if outside of the normal range, are not clinically significant according to the investigator. • 3. Similarly, a third dose (18 mg) will only be administered if: • a. […] The 12 mg dose was safe and well-tolerated according to the investigator, and • c. Any PsE of the prior dose have subsided, and • d. Pre-dose vital parameters and forced expiratory volume in one second (FEV1) are in normal range, or if outside of the normal range, are not clinically significant according to the investigator.
The patients will be assessed for a peak psychedelic experience (based on a patient-scored visual analogue scale, the PE scale), sedation, and other endpoints after dosing. Follow-up visits are planned for Day 1, and Day 7 after the dosing day.

Compound: COc1ccc2[nH]cc(CCN(C)C)c2c1 [5-MeO-DMT]
- MADRS apparent sadness improvement (2 hr): 5
- MADRS apparent sadness score (2 hr): 0
- MADRS concentration difficulties improvement (2 hr): 0
- MADRS concentration difficulties score (2 hr): 0
- MADRS inability to feel improvement (2 hr): 3
- MADRS inability to feel score (2 hr): 0
- MADRS inner tension improvement (2 hr): 5
- MADRS inner tension score (2 hr): 0
- MADRS lassitude improvement (2 hr): 3
- MADRS lassitude score (2 hr): 0
- MADRS pessimistic thoughts improvement (2 hr): 4
- MADRS pessimistic thoughts score (2 hr): 0
- MADRS reduced appetite improvement (2 hr): 0
- MADRS reduced appetite score (2 hr): 0
- MADRS reduced sleep improvement (2 hr): 0
- MADRS reduced sleep score (2 hr): 5
- MADRS reported sadness improvement (2 hr): 4
- MADRS reported sadness score (2 hr): 0
- MADRS suicidal thoughts improvement (2 hr): 0
- MADRS suicidal thoughts score (2 hr): 0
- adverse events (abdominal pain, headache) (Day 0): mild, short-lasting and resolved spontaneously
- BPRS anxiety improvement (Day 1): 6
- BPRS anxiety score (Day 1): 1
- BPRS blunted affect improvement (Day 1): 0
- BPRS blunted affect score (Day 1): 1
- BPRS conceptual disorganization improvement (Day 1): 0
- BPRS conceptual disorganization score (Day 1): 1
- BPRS depressive mood improvement (Day 1): 5
- BPRS depressive mood score (Day 1): 1
- BPRS disorientation improvement (Day 1): 0
- BPRS disorientation score (Day 1): 1
- BPRS emotional withdrawal improvement (Day 1): 4
- BPRS emotional withdrawal score (Day 1): 1
- BPRS excitement improvement (Day 1): 1
- BPRS excitement score (Day 1): 1
- BPRS grandiosity improvement (Day 1): 0
- BPRS grandiosity score (Day 1): 1
- BPRS guilt feelings improvement (Day 1): 5
- BPRS guilt feelings score (Day 1): 1
- BPRS hallucinatory behaviour improvement (Day 1): 0
- BPRS hallucinatory behaviour score (Day 1): 1
- BPRS hostility improvement (Day 1): 0
- BPRS hostility score (Day 1): 1
- BPRS mannerisms and posturing improvement (Day 1): 0
- BPRS mannerisms and posturing score (Day 1): 1
- BPRS motor retardation improvement (Day 1): 0
- BPRS motor retardation score (Day 1): 1
- BPRS somatic concern improvement (Day 1): 5
- BPRS somatic concern score (Day 1): 1
- BPRS suspiciousness improvement (Day 1): 0
- BPRS suspiciousness score (Day 1): 1
- BPRS tension score (Day 1): 1
- BPRS uncooperativeness improvement (Day 1): 0
- BPRS uncooperativeness score (Day 1): 1
- BPRS unusual thought content improvement (Day 1): 0
- BPRS unusual thought content score (Day 1): 1
- MADRS apparent sadness improvement (Day 1): 5
- MADRS apparent sadness score (Day 1): 0
- MADRS concentration difficulties improvement (Day 1): 0
- MADRS concentration difficulties score (Day 1): 0
- MADRS inability to feel improvement (Day 1): 3
- MADRS inability to feel score (Day 1): 0
- MADRS inner tension improvement (Day 1): 5
- MADRS inner tension score (Day 1): 0
- MADRS lassitude improvement (Day 1): 3
- MADRS lassitude score (Day 1): 0
- MADRS pessimistic thoughts improvement (Day 1): 4
- MADRS pessimistic thoughts score (Day 1): 0
- MADRS reduced appetite improvement (Day 1): 0
- MADRS reduced appetite score (Day 1): 0
- MADRS reduced sleep improvement (Day 1): 5
- MADRS reduced sleep score (Day 1): 0
- MADRS reported sadness improvement (Day 1): 4
- MADRS reported sadness score (Day 1): 0
- MADRS suicidal thoughts improvement (Day 1): 0
- MADRS suicidal thoughts score (Day 1): 0
- BIMF functional domain Adjustment score (Day 7): 6
- BIMF functional domain Infant Care score (Day 7): 12
- BIMF functional domain Management score (Day 7): 33
- BIMF functional domain Mother-Child Interaction score (Day 7): 17
- BIMF functional domain Psychological Well-being score (Day 7): 53
- BIMF functional domain Self-Care score (Day 7): 13
- BIMF functional domain Social Support score (Day 7): 18
- BIMF item 1 score (I am a good mother) (Day 7): 6
- BIMF item 2 score (I feel rested) (Day 7): 2
- BIMF item 3 score (I am comfortable with the way I've chosen to feed my baby) (Day 7): 6
- BIMF item 4 score (My baby and I understand each other) (Day 7): 5
- BIMF item 5 score (I am able to relax and enjoy time with my baby) (Day 7): 6
- BIMF item 6 score (There are people in my life that I can trust to care for my baby) (Day 7): 6
- BIMF item 8 score (I am getting enough adult interaction) (Day 7): 6
- BIMF item 9 score (I am getting enough encouragement from other people) (Day 7): 6
- BIMF item 10 score (I trust my own feelings (instincts)) (Day 7): 6
- BIMF item 11 score (I take a little time each week to do something for myself) (Day 7): 6
- BIMF item 12 score (I am taking good care of my baby's physical needs) (Day 7): 6
- BIMF item 13 score (I am taking good care of my physical needs) (Day 7): 5
- BIMF item 14 score (I make good descisions about my baby's health and well being) (Day 7): 6
- BIMF item 15 score (My baby and I are getting into a routine) (Day 7): 6
- BIMF item 16 score (I worry about how other people judge me) (Day 7): 5
- BIMF item 17 score (I am able to take care of my baby and my other responsibilites) (Day 7): 5
- BIMF item 18 score (Anxiety or worry often interferes with my mothering ability) (Day 7): 1
- BIMF item 19 score (As time goes on, I am getting better at taking care of my baby) (Day 7): 1
- BIMF item 20 score (I am satisfied with the job I am doing as a new mother) (Day 7): 5
- BPRS anxiety improvement (Day 7): 6
- BPRS anxiety score (Day 7): 1
- BPRS blunted affect improvement (Day 7): 0
- BPRS blunted affect score (Day 7): 1
- BPRS conceptual disorganization improvement (Day 7): 0
- BPRS conceptual disorganization score (Day 7): 1
- BPRS depressive mood improvement (Day 7): 5
- BPRS depressive mood score (Day 7): 1
- BPRS disorientation improvement (Day 7): 0
- BPRS disorientation score (Day 7): 1
- BPRS emotional withdrawal improvement (Day 7): 4
- BPRS emotional withdrawal score (Day 7): 1
- BPRS excitement improvement (Day 7): 1
- BPRS excitement score (Day 7): 1
- BPRS grandiosity improvement (Day 7): 0
- BPRS grandiosity score (Day 7): 1
- BPRS guilt feelings improvement (Day 7): 5
- BPRS guilt feelings score (Day 7): 1
- BPRS hallucinatory behaviour improvement (Day 7): 0
- BPRS hallucinatory behaviour score (Day 7): 1
- BPRS hostility improvement (Day 7): 0
- BPRS hostility score (Day 7): 1
- BPRS mannerisms and posturing improvement (Day 7): 0
- BPRS mannerisms and posturing score (Day 7): 1
- BPRS motor retardation improvement (Day 7): 0
- BPRS motor retardation score (Day 7): 1
- BPRS somatic concern improvement (Day 7): 5
- BPRS somatic concern score (Day 7): 1
- BPRS suspiciousness improvement (Day 7): 0
- BPRS suspiciousness score (Day 7): 1
- BPRS tension improvement (Day 7): 5
- BPRS tension score (Day 7): 1
- BPRS uncooperativeness improvement (Day 7): 0
- BPRS uncooperativeness score (Day 7): 1
- BPRS unusual thought content improvement (Day 7): 0
- BPRS unusual thought content score (Day 7): 1
- MADRS apparent sadness improvement (Day 7): 5
- MADRS apparent sadness score (Day 7): 0
- MADRS concentration difficulties improvement (Day 7): 0
- MADRS concentration difficulties score (Day 7): 0
- MADRS inability to feel improvement (Day 7): 3
- MADRS inability to feel score (Day 7): 0
- MADRS inner tension improvement (Day 7): 4
- MADRS inner tension score (Day 7): 1
- MADRS lassitude improvement (Day 7): 3
- MADRS lassitude score (Day 7): 0
- MADRS pessimistic thoughts improvement (Day 7): 4
- MADRS pessimistic thoughts score (Day 7): 0
- MADRS reduced appetite improvement (Day 7): 0
- MADRS reduced appetite score (Day 7): 0
- MADRS reduced sleep improvement (Day 7): 5
- MADRS reduced sleep score (Day 7): 0
- MADRS reported sadness improvement (Day 7): 4
- MADRS reported sadness score (Day 7): 0
- MADRS suicidal thoughts improvement (Day 7): 0
- MADRS suicidal thoughts score (Day 7): 0
- BIMF Adjustment % improvement (Day 7 vs Day 0): 20.00%
- BIMF Adjustment Δ (Day 7 vs Day 0): 1
- BIMF Infant Care % improvement (Day 7 vs Day 0): 0.00%
- BIMF Infant Care Δ (Day 7 vs Day 0): 0
- BIMF Management % improvement (Day 7 vs Day 0): 18%
- BIMF Management Δ (Day 7 vs Day 0): 5
- BIMF Mother-Child Interaction Δ (Day 7 vs Day 0): 2
- BIMF Psychological Well-being Δ (Day 7 vs Day 0): 9
- BIMF Self-Care % improvement (Day 7 vs Day 0): 44%
- BIMF Self-Care Δ (Day 7 vs Day 0): 4
- BIMF Social Support Δ (Day 7 vs Day 0): 1
- BIMF item 1 Δ (Day 7 vs Day 0): 0
- BIMF item 2 Δ (Day 7 vs Day 0): 2
- BIMF item 3 Δ (Day 7 vs Day 0): 0
- BIMF item 4 Δ (Day 7 vs Day 0): 0
- BIMF item 5 Δ (Day 7 vs Day 0): 1
- BIMF item 6 Δ (Day 7 vs Day 0): 0
- BIMF item 7 Δ (Day 7 vs Day 0): 0
- BIMF item 8 Δ (Day 7 vs Day 0): 0
- BIMF item 9 Δ (Day 7 vs Day 0): 1
- BIMF item 10 Δ (Day 7 vs Day 0): 1
- BIMF item 11 Δ (Day 7 vs Day 0): 1
- BIMF item 12 Δ (Day 7 vs Day 0): 0
- BIMF item 13 Δ (Day 7 vs Day 0): 1
- BIMF item 14 Δ (Day 7 vs Day 0): 0
- BIMF item 15 Δ (Day 7 vs Day 0): 1
- BIMF item 16 Δ (Day 7 vs Day 0): 2
- BIMF item 17 Δ (Day 7 vs Day 0): 0
- BIMF item 18 Δ (Day 7 vs Day 0): 1
- BIMF item 19 Δ (Day 7 vs Day 0): 1
- BIMF item 20 Δ (Day 7 vs Day 0): −1
- BIMF total score Δ (Day 7 vs Day 0): 13
- time to clinical remission (after administration): ≤ 2 h
- time to clinical response (after administration): ≤ 2 h
- BPRS anxiety improvement (discharge): 6
- BPRS anxiety score (discharge): 1
- BPRS blunted affect improvement (discharge): 0
- BPRS blunted affect score (discharge): 1
- BPRS conceptual disorganization improvement (discharge): 0
- BPRS conceptual disorganization score (discharge): 1
- BPRS depressive mood improvement (discharge): 5
- BPRS depressive mood score (discharge): 1
- BPRS disorientation improvement (discharge): 0
- BPRS disorientation score (discharge): 1
- BPRS emotional withdrawal improvement (discharge): 4
- BPRS emotional withdrawal score (discharge): 1
- BPRS excitement improvement (discharge): 1
- BPRS excitement score (discharge): 1
- BPRS grandiosity improvement (discharge): 0
- BPRS grandiosity score (discharge): 1
- BPRS guilt feelings improvement (discharge): 5
- BPRS guilt feelings score (discharge): 1
- BPRS hallucinatory behaviour improvement (discharge): 0
- BPRS hallucinatory behaviour score (discharge): 1
- BPRS hostility improvement (discharge): 0
- BPRS hostility score (discharge): 1
- BPRS mannerisms and posturing improvement (discharge): 0
- BPRS mannerisms and posturing score (discharge): 1
- BPRS motor retardation improvement (discharge): 0
- BPRS motor retardation score (discharge): 1
- BPRS somatic concern improvement (discharge): 5
- BPRS somatic concern score (discharge): 1
- BPRS suspiciousness improvement (discharge): 0
- BPRS suspiciousness score (discharge): 1
- BPRS tension score (discharge): 1
- BPRS uncooperativeness improvement (discharge): 0
- BPRS uncooperativeness score (discharge): 1
- BPRS unusual thought content improvement (discharge): 0
- BPRS unusual thought content score (discharge): 1
- vital parameters (shortly after administration): temporary, clinically non-relevant increase in heart rate and blood pressure
